Results taken from PMC7000209, “Novel small molecule modulators of quorum sensing in avian pathogenic Escherichia coli (APEC)” (Virulence, 2018).

Tests used:
[1] = test system: QS-regulated and virulence factors genes of APEC O78; assay: qRT-PCR of QS-regulated and virulence factor genes; type: cell-based, avian pathogenic E. coli (APEC) O78; settings: APEC O78, 100 µM, 10 h, ∆∆Ct vs DMSO
Method: The effect of the selected AI-2 inhibitors on the expression of QS-regulated and virulence factors genes of APEC was determined using qRT-PCR. APEC O78 was grown in the presence of 100 µM of each compound in a 96-well plate at 37 °C for 10 h. APEC O78 culture treated with 1µL of 100% DMSO was used as control. Total RNA was extracted from duplicate wells for each compound (200 µL) using a miRNeasy Mini Kit (Qiagen). RNA quality and quantity was determined by nanodrop 2000 C spectrophotometer (Thermo scientific). Traces of DNA were removed using Genomic DNA removal mix (Qiagen). Approximately, 5 μg of purified RNA was used to synthesize cDNA using the Qiagen RT^2 First Strand Kit (Qiagen). The qRT-PCR was performed using SensiMix^TM SYBR® Hi-ROX qPCR Master Mix (Bioline) according to manufacturer instructions in a realplex^2 mastercycler (Eppendorf) with 55 °C annealing temperature. Gene-specific primers were designed using PrimerQuest Tool and obtained from integrated DNA technologies (IDT). The data were normalized to the house-keeping gene, glyceraldehyde-3-phosphate dehydrogenase (GAPDH). The relative fold change was calculated using the ∆∆Ct method. Three independent experiments were conducted.

AI-2 activity of O15 = assay: AI-2 bioluminescence indicator assay, APEC O15; type: cell-based, avian pathogenic E. coli (APEC) O15; settings: Escherichia coli, read-out: % Inhibtion of AI-2 activity, serotype O15, bioluminescence vs DMSO treated control
Method: (§1) Overnight culture of APEC O78 prepared in LB broth was adjusted to an optical density (OD600) of 0.05 (7 × 10^7 CFU/mL) in fresh LB broth. One hundred micro-liters of the culture was transferred to a 96-well plate and 1µL (100 μM final concentration) of the compound was added to each well using a pin tool. Chloramphenicol (40 μg/mL) or kanamycin (30 μg/mL) and 1μL of 100% DMSO were included as controls in each plate. Plates were incubated at 37 °C for 10 h with shaking in a Sunrise^TM Tecan plate reader (Tecan Group Ltd. San Jose, CA, USA) and the growth was kinetically monitored every 30 min by measuring the OD at 600 nm.
(§2) The AI-2 bioluminescence assay was performed as described previously. Briefly, APEC O78 cultures grown in the presence of SMs (see above) were centrifuged at 5000 × g for 10 min, and cell-free culture supernatants were prepared by using a 0.22 µm filter 96 well plate (Millipore). The bioluminescence reporter V. harveyi BB170 (AI-1^+ and AI-2^-) was grown overnight in AB medium at 30 °C aerobically with shaking. The overnight culture was diluted to 1:5000 in fresh AB medium and incubated at 30 °C for 3 h. Following incubation, 180 μL of the V. harveyi BB170 culture was distributed into each well of a 96-well plate and mixed with 20 µL of the cell free culture supernatant, the plate was then incubated at 30 °C for 2.5 h in the dark and the bioluminescence was measured using in vivo imaging system (IVIS Lumina Series III, PerkinElmer, USA). […] Cell-free culture supernatants collected from overnight cultures of V. harveyi BB120 (AI-1^+andAI-2^+) and E. coli DH5α (a strain lacks AI-2) were used as controls. Bioluminescence of SMs treated culture supernatants were compared to DMSO treated control. The Z-score was calculated to evaluate the quality of the bioluminescence screening. Four independent experiments were conducted for the 69 compounds that inhibited ≥ 75% of the AI-2 mediated bioluminescence and the average inhibition percentage was calculated.
(§3) The selected compounds were also tested for inhibition of AI-2 production in other APEC serotypes such as O1, O2, O8, O15, O18, O35, O109, and O115 that are commonly implicated in colibacillosis using the same procedure described above.

AI-2 activity of O115 = assay: AI-2 bioluminescence indicator assay, APEC O115; type: cell-based, avian pathogenic E. coli (APEC) O115; settings: Escherichia coli, read-out: % Inhibtion of AI-2 activity, serotype O115, bioluminescence vs DMSO treated control
Method: as §1, §2, §3

AI-2 activity of O8 = assay: AI-2 bioluminescence indicator assay, APEC O8; type: cell-based, avian pathogenic E. coli (APEC) O8; settings: Escherichia coli, read-out: % Inhibtion of AI-2 activity, serotype O8, bioluminescence vs DMSO treated control
Method: as §1, §2, §3

[2] = test system: G. mellonella larvae infected with APEC O78; assay: Wax moth (G. mellonella) larva infection model; type: in vivo, Galleria mellonella; settings: for increase in larval survival: 12.5 µg/larva (50 mg/kg), APEC O78 4.25 × 10^4 CFU, 72 h, vs DMSO treated controls; for clearance of APEC in surviving larvae / reduction of bacterial load in surviving larvae: live larvae at 72 h; for reduction of bacterial load in surviving larvae: in comparison to dead larvae
Method: G. mellonella caterpillars (larvae) in the final instar stage (fifth instar) were obtained from Vanderhorst, Inc. (St. Mary’s, Ohio, USA), stored in wood shavings in a petri dish in the dark and used within 7 days of receiving. Larvae with 15–25 mm length, 250–350 mg weight, having a creamy color with minimal speckling and no grey markings were used in this study. The infection was performed as described previously. For the inoculation, AI-2 inhibitors were diluted in a buffer mix (30% DMSO plus 10 mM MgSO4) as described previously and each larva (n = 10) was inoculated with 8.5 µL (50 mg/kg; 12.5 µg/larva) of the AI-2 inhibitors into the hemocoel via the last left proleg using PB600-1 repeating dispenser (Hamilton) attached to insulin syringe (31 gauge, 8 mm needle length; ReliOn). Larvae were placed inside sterile petri dishes and incubated for 2 h in the dark at 37 °C. Then, larvae were infected with 8.5 µL of (4.25 × 10^4 CFU) of Rif^R APEC O78 in 10 mM MgSO4 on the right hind proleg. Rif^R APEC O78 was generated as described above by plating APEC on LB agar plate containing 50 µg/ mL rifampicin for specific monitoring of APEC population inside the larvae. […] Infection dose of Rif^R APEC O78 to larvae was identified based on preliminary study (Figure S1). Larvae were incubated at 37°C in the dark and the survival was monitored daily for 72 h. Infected larvae treated with buffer mix and 75 mg/kg of chloramphenicol were used as controls.
For the quantification of APEC inside the larvae, dead and live larvae were surface sterilized with 70% ethanol, homogenized in PBS. The suspension was tenfold serially diluted and plated on MacConkey agar plates supplemented with 50 µg/mL of rifampicin. The plates were then incubated overnight at 37 °C and APEC load was enumerated. Two independent experiments were conducted using larvae (n = 10) obtained in different batches.

AI-2 activity of O35 = assay: AI-2 bioluminescence indicator assay, APEC O35; type: cell-based, avian pathogenic E. coli (APEC) O35; settings: Escherichia coli, read-out: % Inhibtion of AI-2 activity, serotype O35, bioluminescence vs DMSO treated control
Method: as §1, §2, §3

Row | Compound | expression of hha [1] | expression of ugpC [1] | inhibition at 100 µM (AI-2 activity of O15) [%] | inhibition at 100 µM (AI-2 activity of O115) [%] | inhibition at 100 µM (AI-2 activity of O8) [%] | larval death at 48 h post treatment (in words) [2] | inhibition at 100 µM (AI-2 activity of O35) [%] | expression of iss [1] | expression of murD [1] | expression of fpr [1] | expression of cheW [1] | expression of csrA [1] | expression of fliP [1] | other results
1 | Cc1ccccc1N1CCN(C2CCCN(C(=O)c3ccc(F)c(Cl)c3)C2)CC1 (stereo not shown) [C2, 1-[1-(3-chloro-4-fluorobenzoyl)-3-piperidinyl]-4-(2-methylphenyl)piperazine] | down-regulated | down-regulated | 27 | 52 | 20 | no larval death | 55 |  |  |  |  |  |  | increase in larval survival [2]: 30%; clearance of APEC in surviving larvae [2]: 100%; reduction of bacterial load in surviving larvae [2]: up to 5 logs
2 | COCCN1CCC(CN(Cc2ccncc2)Cc2ccccc2Cl)CC1 [C1, (2-chlorobenzyl){[1-(2-methoxyethyl)-4-piperidinyl]methyl}(4-pyridinylmethyl)amine] | down-regulated | down-regulated | 13 | 64 | 20 |  | 48 | down-regulated | down-regulated |  |  |  |  | expression of thiH [1]: down-regulated; increase in larval survival [2]: 23%; larval death at 72 h post treatment (in words) [2]: no larval death
3 | NC(=O)c1ccccc1Nc1cccc(C(F)(F)F)c1 [C3, 2-{[3-(trifluoromethyl)phenyl]amino}benzamide] |  |  | 0 | 35 | 39 |  | 37 |  |  | down-regulated |  |  |  | 
4 | Fc1ccc(CN2CCCN(Cc3nc(-c4ccc(C(F)(F)F)cc4)no3)CC2)cc1 [C9, 1-(4-fluorobenzyl)-4-({3-[4-(trifluoromethyl)phenyl]-1,2,4-oxadiazol-5-yl}methyl)-1,4-diazepane] |  | down-regulated | 0 | 44 | 20 |  | 36 | up-regulated | down-regulated |  | down-regulated | down-regulated |  | expression of bolA [1]: down-regulated; expression of nlpC [1]: up-regulated
5 | O=C(CCN1CCN(c2ccccc2F)CC1)Nc1ccc(Br)cc1 [C7, N-(4-bromophenyl)-3-[4-(2-fluorophenyl)-1-piperazinyl]propanamide] |  |  | 36 | 45 | 2 |  | 62 |  |  |  |  |  |  | expression of nlpC [1]: up-regulated; larval death at 72 h post treatment (in words) [2]: no larval death
6 | OCCC1CN(C2CCN(c3ccccc3)CC2)CCN1CCCc1ccccc1 (stereo not shown) [C10, 2-[4-(1-phenyl-4-piperidinyl)-1-(3-phenylpropyl)-2-piperazinyl]ethanol] |  |  | 22 | ≥ 75 | 0 |  | 47 | down-regulated |  |  |  |  | down-regulated | expression of frwC [1]: down-regulated
7 | O=[N+]([O-])c1cccc(S(=O)(=O)Nc2ccc(Br)cc2)c1 [C6, N-(4-bromophenyl)-3-nit robenzenesulfonamide] | down-regulated |  |  |  | ≥ 75 | no larval death |  |  | down-regulated | down-regulated | down-regulated | down-regulated | down-regulated | 
8 | Cc1ccc(CN2CCN(CCCc3ccccc3)CC2)cc1 [C5, 1-(4-methylbenzyl)-4-(3-phenylpropyl)piperazine] | down-regulated |  | 45 | 63 | 18 | no larval death | 68 |  |  | down-regulated |  |  | down-regulated | expression of wzb [1]: down-regulated
9 | CS/C(N)=N/N=C/c1cc(C)ccc1O [C4, methyl N'-(2-hydroxy-5-methylbenzylidene)h ydrazonothiocarbamate] |  |  | 46 | 58 | 0 |  | 60 |  |  |  | down-regulated | down-regulated |  | expression of iucD [1]: down-regulated; expression of luxS [1]: did not; expression of pfs [1]: up-regulated
10 | CCc1ccccc1Nc1nc(-c2c(C)nc3ccccn23)cs1 [C8, N-(2-ethylphenyl)-4-(2-methylimidazo[1,2-a]pyridin-3-yl)-1,3-thiazol-2-amine] |  | down-regulated | 25 | 44 | 18 | no larval death | 57 |  |  |  |  |  | down-regulated | clearance of APEC in surviving larvae [2]: 100%; reduction of bacterial load in surviving larvae [2]: up to 5 logs
